Each structure is given as a SMILES string. pIC50: −log10 of the molar value. A value given as a limit tells only on which side of the number the result lay.

Data on 35 compounds can be found in patent US20170253601A1, “Substituted Pyrrolidine Compounds” (EPIZYME, INC., priority 2014, published 2017).

T1 sequence (Q9NRG4 whole entry): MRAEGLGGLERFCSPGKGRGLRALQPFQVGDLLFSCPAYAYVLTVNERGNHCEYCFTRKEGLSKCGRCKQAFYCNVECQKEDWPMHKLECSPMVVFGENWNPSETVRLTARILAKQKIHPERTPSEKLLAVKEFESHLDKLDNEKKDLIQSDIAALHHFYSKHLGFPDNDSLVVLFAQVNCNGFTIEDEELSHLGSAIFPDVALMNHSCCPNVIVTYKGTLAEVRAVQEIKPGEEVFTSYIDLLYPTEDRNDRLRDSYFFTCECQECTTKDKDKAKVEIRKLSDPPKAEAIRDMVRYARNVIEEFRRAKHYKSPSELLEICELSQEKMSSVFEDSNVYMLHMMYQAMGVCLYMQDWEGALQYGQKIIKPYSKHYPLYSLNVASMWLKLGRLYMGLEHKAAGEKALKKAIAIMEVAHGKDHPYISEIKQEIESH

The test has as its target T1, SMYD2 (Homo sapiens, UniProt Q9NRG4).
T1 construct: Full length SMYD2 (NP 064582.2) was cloned; His6 (N, cleaved yes); FLAG (N); made in house; host or cells: Sf9 insect cells
In words: SMYD2 Biochemical Assay (3H-SAM, biotinylated peptide substrate, Flashplate). Particulars: Table 1; average of n = 1 to n = 50; read-out: SMYD2 Biochem IC50. The gist of the method:
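Methyltransferase activity tracked as 3H transfer from 10 nM 3H-SAM to 60 nM biotinylated peptide, counted after streptavidin Flashplate capture and normalised to DMSO and 1000 uM SAH controls. Enzyme: 1.5 nM full-length Sf9-expressed SMYD2, 30 min compound pre-incubation at room temperature, in Bicine pH 7.6 buffer with 2% DMSO; reactions quenched with 600 uM unlabelled SAM; IC50 from 3- or 4-parameter fit.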
As for `O=C(NC1CC(=O)N(c2ccccc2)C1)c1cc(C2CC2)on1` (centres unmarked) [compound 25, 5-cyclopropyl-N-(5-oxo-1-phenylpyrrolidin-3-yl)isoxazole-3-carboxamide], the pIC50 (in general, −log10 of the IC50, conventionally taken in molar units) is less than 4.30.

Consider `C[C@H]1C[C@H](NC(=O)c2cc(C3CC3)on2)C(=O)N1c1cnn(C)c1` (racemic) [compound 20, (±)-trans 5-cyclopropyl-N-(5-methyl-1-(1-methyl-1H-pyrazol-4-yl)-2-oxopyrrolidin-3-yl)isoxazole-3-carboxamide], for which the negative-log IC50 (pIC50) is less than 4.30.

Turning to `O=C(N[C@@H]1CCNC1)c1cc(C2CC2)on1` [compound 4, (R)-5-cyclopropyl-N-(pyrrolidin-3-yl)isoxazole-3-carboxamide], the pIC50 was less than 4.30.

In the case of `O=C(NC1CCN(Cc2ccccc2)C1=O)c1cc(C2CC2)on1` (centres unmarked) [compound 27, N-(1-benzyl-2-oxopyrrolidin-3-yl)-5-cyclopropylisoxazole-3-carboxamide], the pIC50 is less than 4.30.

Consider `CN1C[C@H](NC(=O)c2cc(C3CC3)on2)[C@H](c2ccccc2)C1` (racemic) [compound 17, (±)-cis-5-cyclopropyl-N-((1-methyl-4-phenylpyrrolidin-3-yl)isoxazole-3-carboxamide], for which the pIC50 is less than 4.30.

On to `CN1C[C@H](NC(=O)c2cc(C3CC3)on2)[C@@H](c2ccccc2)C1` (racemic) [compound 18, (±)-trans-5-cyclopropyl-N-(1-methyl-4-phenylpyrrolidin-3-yl)isoxazole-3-carboxamide], for which the pIC50 is less than 4.30.

For `CC(C)N1CCC(NC(=O)c2cc(C3CC3)on2)C1c1ccc(F)c(F)c1` (centres unmarked) [compound 12, 5-cyclopropyl-N-(2-(3,4-difluorophenyl)-1-isopropylpyrrolidin-3-yl)isoxazole-3-carboxamide], the negative logarithm of the IC50 (pIC50) is less than 4.30.

With `CN1CCC(NC(=O)c2cc(C3CC3)on2)C1c1ccc(Cl)c(F)c1` (centres unmarked) [compound 7, N-(2-(4-chloro-3-fluorophenyl)-1-methylpyrrolidin-3-yl)-5-cyclo-propylisoxazole-3-carboxamide], the pIC50 was less than 4.30.

`NCCCS(=O)(=O)N1CC[C@@H](NC(=O)c2cc(C3CC3)on2)C1` [compound 34, (R)-N-(1-((3-amino-propyl)sulfonyl)pyrrolidin-3-yl)-5-cyclopropyl-isoxazole-3-carboxamide]: the negative-log IC50 (pIC50) is less than 4.30.

Regarding `CC1CC(NC(=O)c2cc(C3CC3)on2)C(=O)N1c1ccccc1` (centres unmarked) [compound 11, 5-cyclopropyl-N-(5-methyl-2-oxo-1-phenylpyrrolidin-3-yl)isoxazole-3-carboxamide], the pIC50 is less than 4.30.

Take `CN1CCC(NC(=O)c2cc(C3CC3)on2)C1` (centres unmarked) [compound 29, 5-cyclopropyl-N-(1-methylpyrrolidin-3-yl)isoxazole-3-carboxamide]: the negative-log IC50 (pIC50) is less than 4.30.

Take `CC(=O)Nc1ccc(S(=O)(=O)N2CC[C@@H](NC(=O)c3cc(C4CC4)on3)C2)cc1` [compound 2, (R)-N-(1-((4-acetamido-phenyl)sulfonyl)pyrrolidin-3-yl)-5-cyclopropyl-isoxazole-3-carboxamide]: the negative logarithm of the IC50 (pIC50) is less than 4.30.

`CC1CC(NC(=O)c2cc(C3CC3)on2)CN1Cc1ccccc1` (centres unmarked) [compound 21, N-(1-benzyl-5-methylpyrrolidin-3-yl)-5-cyclopropyl-isoxazole-3-carboxamide]: the pIC50 was 4.35.

For the compound `N[C@H]1CC[C@H](C(=O)N2CC[C@H](NC(=O)c3cc(C4CC4)on3)C2)CC1` [compound 33, N-((S)-1-((1r,4s)-4-aminocyclohexane-1-carbonyl)pyrrolidin-3-yl)-5-cyclopropyl-isoxazole-3-carboxamide], the pIC50 was less than 4.30.

Turning to `COc1cccc(C2C(NC(=O)c3cc(C4CC4)on3)CCN2C2CC2)c1` (centres unmarked) [compound 16, 5-cyclopropyl-N-(1-cyclopropyl-2-(3-methoxy-phenyl)pyrrolidin-3-yl)isoxazole-3-carboxamide], the pIC50 was less than 4.30.

`CN1CCC(NC(=O)c2cc(C3CC3)on2)C1c1ccc(F)cc1` (centres unmarked) [compound 13, 5-cyclopropyl-N-(2-(4-fluorophenyl)-1-methylpyrrolidin-3-yl)isoxazole-3-carboxamide]: the pIC50 was less than 4.30.

As for `CC(=O)Nc1ccc(S(=O)(=O)N2CC[C@H](NC(=O)c3cc(C4CC4)on3)C2)cc1` [compound 1, (S)-N-(1-((4-acetamido-phenyl)sulfonyl)pyrrolidin-3-yl)-5-cyclopropyl-isoxazole-3-carboxamide], the negative-log IC50 (pIC50) was less than 4.30.

For `Cn1ccc(N2CCC(NC(=O)c3cc(C4CC4)on3)C2=O)n1` (centres unmarked) [compound 15, 5-cyclopropyl-N-(1-(1-methyl-1H-pyrazol-3-yl)-2-oxopyrrolidin-3-yl)isoxazole-3-carboxamide], the pIC50 is less than 4.30.

In the case of `CC1CC(NC(=O)c2cc(C3CC3)on2)CN1c1ccccc1` (centres unmarked) [compound 10, 5-cyclopropyl-N-(5-methyl-1-phenylpyrrolidin-3-yl)isoxazole-3-carboxamide], the pIC50 is less than 4.30.

As to `NCCCC(=O)N1CC[C@H](NC(=O)c2cc(C3CC3)on2)C1` [compound 32, (S)-N-(1-(4-amino-butanoyl)pyrrolidin-3-yl)-5-cyclopropyl-isoxazole-3-carboxamide], the pIC50 is less than 4.30.

With `NCCCC(=O)N1CC[C@@H](NC(=O)c2cc(C3CC3)on2)C1` [compound 30, (R)-N-(1-(4-amino-butanoyl)pyrrolidin-3-yl)-5-cyclopropyl-isoxazole-3-carboxamide], the negative-log IC50 (pIC50) was less than 4.30.

In the case of `O=C(NC1CC(=O)N(Cc2ccccc2)C1)c1cc(C2CC2)on1` (centres unmarked) [compound 26, N-(1-benzyl-5-oxopyrrolidin-3-yl)-5-cyclopropylisoxazole-3-carboxamide], the pIC50 was less than 4.30.

On to `O=C(N[C@H]1CCNC1)c1cc(C2CC2)on1` [compound 3, (S)-5-cyclopropyl-N-(pyrrolidin-3-yl)isoxazole-3-carboxamide], for which the pIC50 is 4.31.

`CC(c1ccccc1)N1CCC(NC(=O)c2cc(C3CC3)on2)C1` (centres unmarked) [compound 24, 5-cyclopropyl-N-(1-(1-phenylethyl)pyrrolidin-3-yl)isoxazole-3-carboxamide]: the pIC50 is less than 4.30.

For the compound `N[C@H]1CC[C@H](C(=O)N2CC[C@@H](NC(=O)c3cc(C4CC4)on3)C2)CC1` [compound 31, N-((R)-1-((1r,4r)-4-aminocyclohexane-1-carbonyl)pyrrolidin-3-yl)-5-cyclopropyl-isoxazole-3-carboxamide], the pIC50 is less than 4.30.

`CN1C(=O)CC(NC(=O)c2cc(C3CC3)on2)C1c1ccc(F)cc1` (centres unmarked) [compound 14, 5-cyclopropyl-N-(2-(4-fluorophenyl)-1-methyl-5-oxopyrrolidin-3-yl)isoxazole-3-carboxamide]: the negative logarithm of the IC50 (pIC50) was less than 4.30.

For `CC1CC(NC(=O)c2cc(C3CC3)on2)CN1C1CC1` (centres unmarked) [compound 22, 5-cyclopropyl-N-(1-cyclopropyl-5-methylpyrrolidin-3-yl)isoxazole-3-carboxamide], the pIC50 is less than 4.30.

With `CC1CN(C2CC2)CC1NC(=O)c1cc(C2CC2)on1` (centres unmarked) [compound 23, 5-cyclopropyl-N-(1-cyclopropyl-4-methylpyrrolidin-3-yl)isoxazole-3-carboxamide], the negative logarithm of the IC50 (pIC50) is 5.29.

With `NCCCS(=O)(=O)N1CC[C@H](NC(=O)c2cc(C3CC3)on2)C1` [compound 35, (S)-N-(1-((3-amino-propyl)sulfonyl)pyrrolidin-3-yl)-5-cyclopropyl-isoxazole-3-carboxamide], the pIC50 was less than 4.30.

As to `C[C@@H]1C[C@H](NC(=O)c2cc(C3CC3)on2)C(=O)N1c1cnn(C)c1` (racemic) [compound 19, (±)-cis-5-cyclopropyl-N-(5-methyl-1-(1-methyl-1H-pyrazol-4-yl)-2-oxopyrrolidin-3-yl)isoxazole-3-carboxamide], the pIC50 is less than 4.30.

Turning to `O=C(NC1CCN(c2ccccc2)C1=O)c1cc(C2CC2)on1` (centres unmarked) [compound 28, 5-cyclopropyl-N-(2-oxo-1-phenyl-pyrrolidin-3-yl)isoxazole-3-carboxamide], the negative-log IC50 (pIC50) was less than 4.30.

With `O=C(NC1CCN(C2CC2)C1c1ccc(F)c(F)c1)c1cc(C2CC2)on1` (centres unmarked) [compound 8, 5-cyclopropyl-N-(1-cyclopropyl-2-(3,4-difluoro-phenyl)pyrrolidin-3-yl)isoxazole-3-carboxamide], the negative logarithm of the IC50 (pIC50) was less than 4.30.

On to `CN1CCC(NC(=O)c2cc(C3CC3)on2)C1c1ccc(F)c(F)c1` (centres unmarked) [compound 9, 5-cyclopropyl-N-(2-(3,4-difluorophenyl)-1-methylpyrrolidin-3-yl)isoxazole-3-carboxamide], for which the pIC50 is less than 4.30.

Turning to `CN1CCC(NC(=O)c2cc(C3CC3)on2)C1c1ccccc1` (centres unmarked) [compound 5, 5-cyclopropyl-N-(1-methyl-2-phenyl-pyrrolidin-3-yl)isoxazole-3-carboxamide], the negative-log IC50 (pIC50) is less than 4.30.

Regarding `Cc1cc(N2CCC(NC(=O)c3cc(C4CC4)on3)C2=O)n(C)n1` (centres unmarked) [compound 6, 5-cyclopropyl-N-(1-(1,3-dimethyl-1H-pyrazol-5-yl)-2-oxopyrrolidin-3-yl)isoxazole-3-carboxamide], the negative-log IC50 (pIC50) was less than 4.30.
